Source: publication PMC6767355 (Journal of Medicinal Chemistry, 2019)
Where two headings read alike, the source gives them in different places.

What was measured:
L1 [1] = biological target: T1, L1 (Stenotrophomonas maltophilia, UniProt P52700); settings: cited from earlier work
T1 construct: made in house

CphA = biological target: T2, CphA (Aeromonas hydrophila, UniProt P26918); settings: cited from earlier work
T2 construct: made in house

[2] = system: six NDM-1-producing clinical isolates of Escherichia coli and Klebsiella pneumoniae; experiment: Antimicrobial susceptibility testing, MIC, summary over six clinical isolates; format: cell-based; settings: read-out: MIC in the absence of VNRX-5133; all six NDM-1-producing isolates
Experimental: (§1) Minimal inhibitory concentration (MIC) values were determined by the agar dilution method and interpreted using published guidelines described by EUCAST/CLSI.[57] All reported MIC values are within ±1 log2 dilution of the reference MIC values.

[3] = system: NDM-1-producing Klebsiella pneumoniae clinical isolates; experiment: Antimicrobial susceptibility testing, MIC by agar dilution; format: cell-based; settings: antibiotic alone; for MIC: Klebsiella pneumoniae, strain B64, Kp, read-out: Cef/MEM MIC
Experimental: as §1

[4] = system: NDM-1-producing Escherichia coli clinical isolates; experiment: as above; format: cell-based; settings: antibiotic alone; for MIC: Escherichia coli, strain S117, Ec, read-out: Cef/MEM MIC
Experimental: as §1

L1 [5] = biological target: T1, L1; experiment: β-lactamase inhibition, fluorogenic FC5 hydrolysis assay; format: biochemical
NDM-1 = biological target: T3, NDM-1 (Klebsiella pneumoniae, UniProt C7C422); format: biochemical; settings: pre-incubation 0-180 min; supports reversible inhibition
T3 construct: made in house
T3 sequence (C7C422 29-270, looked up, species assumed): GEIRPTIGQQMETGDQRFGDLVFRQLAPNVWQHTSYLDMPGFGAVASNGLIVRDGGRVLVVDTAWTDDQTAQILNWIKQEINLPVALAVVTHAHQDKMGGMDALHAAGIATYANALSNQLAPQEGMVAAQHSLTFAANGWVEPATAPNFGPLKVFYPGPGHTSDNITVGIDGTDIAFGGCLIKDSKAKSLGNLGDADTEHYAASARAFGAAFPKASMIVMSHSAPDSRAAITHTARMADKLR

OXA-10 = biological target: T4, OXA-10 (Pseudomonas aeruginosa, UniProt P14489); settings: cited from earlier work
T4 construct: made in house
T4 sequence (P14489 20-266, species assumed): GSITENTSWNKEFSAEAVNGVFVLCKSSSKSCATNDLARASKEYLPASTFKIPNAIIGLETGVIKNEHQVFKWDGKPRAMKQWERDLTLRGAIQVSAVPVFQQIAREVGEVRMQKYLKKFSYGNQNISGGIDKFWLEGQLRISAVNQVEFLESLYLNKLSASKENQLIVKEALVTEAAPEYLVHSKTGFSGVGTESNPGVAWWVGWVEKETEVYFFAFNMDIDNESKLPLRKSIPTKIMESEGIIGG

T1 sequence (P52700 34-290): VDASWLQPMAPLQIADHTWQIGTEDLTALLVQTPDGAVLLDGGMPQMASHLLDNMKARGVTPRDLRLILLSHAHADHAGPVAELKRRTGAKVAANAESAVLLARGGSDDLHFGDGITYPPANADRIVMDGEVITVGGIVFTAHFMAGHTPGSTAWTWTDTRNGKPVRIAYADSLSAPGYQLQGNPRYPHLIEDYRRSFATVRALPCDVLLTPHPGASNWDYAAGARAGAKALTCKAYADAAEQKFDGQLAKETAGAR
T2 sequence (P26918 28-254): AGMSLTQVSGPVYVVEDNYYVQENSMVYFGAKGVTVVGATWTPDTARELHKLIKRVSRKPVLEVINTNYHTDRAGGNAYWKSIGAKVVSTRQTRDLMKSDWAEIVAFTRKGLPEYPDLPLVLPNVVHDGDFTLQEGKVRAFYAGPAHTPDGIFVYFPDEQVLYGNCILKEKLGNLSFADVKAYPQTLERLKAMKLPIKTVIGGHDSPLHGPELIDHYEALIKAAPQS

MIC [2] [µg/mL] | MIC [3] [µg/mL] | Cef/MEM MIC ([3]; strain B68-1, Kp) [μg mL^–1] | Cef/MEM MIC ([3]; strain IR43, Kp) [μg mL^–1] | MIC [4] [µg/mL] | Cef/MEM MIC ([4]; strain 91N, Ec) [μg mL^–1] | Cef/MEM MIC ([4]; strain IR57, Ec) [μg mL^–1] | SMILES | further results
– | – | – | – | – | – | – | NCc1ccc(C(=O)N[C@H]2Cc3cccc(C(=O)O)c3OB2O)cc1 [CB2] | IC50 L1 (L1 [1]): not inhibited[41]; IC50 (CphA): > 100 µM
> 64 | > 64 | >64 | >64 | > 64 | >64 | >64 | CO/N=C(\C(=O)N[C@@H]1C(=O)N2C(C(=O)[O-])=C(C[N+]3(C)CCCC3)CS[C@H]12)c1csc(N)n1 [Cef, cefepime] | –
> 64 | > 64 | >64 | >64 | > 64 | >64 | >64 | C[C@@H](O)[C@H]1C(=O)N2C(C(=O)O)=C(S[C@@H]3CN[C@H](C(=O)N(C)C)C3)[C@H](C)[C@H]12 [MEM, meropenem] | –
– | – | – | – | – | – | – | NCCN[C@H]1CC[C@H](CC(=O)N[C@H]2Cc3cccc(C(=O)O)c3OB2O)CC1 [VNRX-5133, (R)-3-(2-(trans-4-((2-Aminoethyl)amino)cyclohexyl)acetamido)-2-hydroxy-3,4-dihydro-2H-benzo[e][1,2]oxaborinine-8-carboxylic Acid] | inhibition of subclass B3 MBL L1 (in words) (L1 [5]): nor did it inhibit; IC50 (L1 [5]; B3 MBL, FC5): > 10 µM; effect of variation in pre-incubation time on IC50, NDM-1 (NDM-1): did not result in different IC50 values
– | – | – | – | – | – | – | O=C(O)C[C@@H]1CC[C@H](NC(=O)Cc2cccs2)B(O)O1 [vaborbactam] | IC50 (OXA-10; 100 mM aqueous sodium bicarbonate, read-out: IC50 OXA-10 (b)): > 400 µM; inhibition of OXA-10 (in words) (OXA-10): not inhibited; IC50 (OXA-10; without sodium bicarbonate, read-out: IC50 OXA-10): > 400 µM
